Laboratory results from patent US12077503B2, “Substituted cyclic amides and their use as herbicides” (FMC CORPORATION, priority 2015, dated 2024).

Columns and labels:
Format in all cases: in vivo
[1] = test system: barnyardgrass (Echinochloa crus-galli); test: Test G Pre-Emergence Protocol; conditions: Echinochloa crus-galli, pre-emergence, 312 h, evaluated after 13 days; for pest or weed control at 15.625 g/ha: 15.625 g ai/ha; for pest or weed control at 15.625 g/ha / pest or weed control at 250 g/ha: read-out: Barnyardgrass damage rating (100=total damage to plant; 0=no damage to plant); for pest or weed control at 62.5 g/ha: 62.5 g ai/ha, 100=total damage to plant, 0=no damage to plant, read-out: Barnyardgrass damage rating; for pest or weed control at 250 g/ha: 250 g ai/ha
Summary of the method: (§1)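 Seeds were sown in standard soil and kept one day in a glasshouse (24/16° C day/night, 14 h light, 65% humidity), then sprayed with compound in acetone/water (50:50) containing 0.5% Tween 20 at 15.625, 62.5 or 250 g/ha. Damage was scored after 13 days (0 = none, 100 = total).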

corn (Zea mays) [2] = test: Test G Pre-Emergence Protocol; conditions: evaluated after 13 days; for plant injury at 62.5 g/ha: 62.5 g ai/ha, 100=total damage to plant, 0=no damage to plant, read-out: Corn damage rating; for plant injury at 250 g/ha: 250 g ai/ha
Summary of the method: as §1

[3] = test system: giant foxtail (Setaria faberi); test: Test G Pre-Emergence Protocol; conditions: Setaria faberi, pre-emergence, 312 h, evaluated after 13 days; for pest or weed control at 15.625 g/ha: 15.625 g ai/ha; for pest or weed control at 15.625 g/ha / pest or weed control at 250 g/ha: read-out: Foxtail, Giant damage rating (100=total damage to plant; 0=no damage to plant); for pest or weed control at 62.5 g/ha: 62.5 g ai/ha, 100=total damage to plant, 0=no damage to plant, read-out: Foxtail, Giant damage rating; for pest or weed control at 250 g/ha: 250 g ai/ha
Summary of the method: as §1

[4] = test system: ivy-leaved morning glory (Ipomoea hederacea); test: Test G Pre-Emergence Protocol; conditions: evaluated after 13 days; for pest or weed control at 15.625 g/ha: 15.625 g ai/ha; for pest or weed control at 15.625 g/ha / pest or weed control at 250 g/ha: read-out: Morningglory, Ivy-leaved damage rating (100=total damage to plant; 0=no damage to plant); for pest or weed control at 250 g/ha: 250 g ai/ha
Summary of the method: as §1

[5] = test system: redroot pigweed (Amaranthus retroflexus); test: Test G Pre-Emergence Protocol; conditions: evaluated after 13 days; for pest or weed control at 15.625 g/ha: 15.625 g ai/ha; for pest or weed control at 62.5 g/ha: 62.5 g ai/ha, 100=total damage to plant, 0=no damage to plant, read-out: Pigweed, Redroot damage rating
Summary of the method: as §1

[6] = test system: velvetleaf (Abutilon theophrasti); test: Test G Pre-Emergence Protocol; conditions: evaluated after 13 days; for pest or weed control at 62.5 g/ha: 62.5 g ai/ha, 100=total damage to plant, 0=no damage to plant, read-out: Velvetleaf damage rating; for pest or weed control at 250 g/ha: 250 g ai/ha
Summary of the method: as §1

[7] = test system: barnyardgrass (Echinochloa crus-galli); test: Test G Post-Emergence Protocol; conditions: Echinochloa crus-galli, post-emergence, 312 h, read-out: Barnyardgrass damage rating; for pest or weed control at 15.625 g/ha: 15.625 g ai/ha, evaluated after 13 days (100=total damage to plant; 0=no damage to plant); for pest or weed control at 62.5 g/ha: 62.5 g ai/ha; for pest or weed control at 62.5 g/ha / pest or weed control at 250 g/ha: evaluated after 13 days, 100=total damage to plant, 0=no damage to plant; for pest or weed control at 250 g/ha: 250 g ai/ha
Summary of the method: (§2)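 Pot-grown seedlings, 8 days old, raised in a glasshouse at 24/16 °C day/night with 14 h light and 65% humidity, were sprayed post-emergence with test compound in acetone/water (50:50) plus 0.5% Tween 20 at 15.625, 62.5 or 250 g/ha. Damage was scored visually 13 days later on a 0–100 scale (100 = total damage).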

corn (Zea mays) [8] = test: Test G Post-Emergence Protocol; conditions: Zea mays, post-emergence, 312 h, read-out: Corn damage rating; for plant injury at 15.625 g/ha: 15.625 g ai/ha, evaluated after 13 days (100=total damage to plant; 0=no damage to plant); for plant injury at 62.5 g/ha: 62.5 g ai/ha; for plant injury at 62.5 g/ha / plant injury at 250 g/ha: evaluated after 13 days, 100=total damage to plant, 0=no damage to plant; for plant injury at 250 g/ha: 250 g ai/ha
Summary of the method: as §2

[9] = test system: giant foxtail (Setaria faberi); test: Test G Post-Emergence Protocol; conditions: Setaria faberi, post-emergence, 312 h, read-out: Foxtail, Giant damage rating; for pest or weed control at 15.625 g/ha: 15.625 g ai/ha, evaluated after 13 days (100=total damage to plant; 0=no damage to plant); for pest or weed control at 62.5 g/ha: 62.5 g ai/ha; for pest or weed control at 62.5 g/ha / pest or weed control at 250 g/ha: evaluated after 13 days, 100=total damage to plant, 0=no damage to plant; for pest or weed control at 250 g/ha: 250 g ai/ha
Summary of the method: as §2

[10] = test system: ivy-leaved morning glory (Ipomoea hederacea); test: Test G Post-Emergence Protocol; conditions: for pest or weed control at 62.5 g/ha: 62.5 g ai/ha; for pest or weed control at 62.5 g/ha / pest or weed control at 250 g/ha: evaluated after 13 days, 100=total damage to plant, 0=no damage to plant; for pest or weed control at 250 g/ha: 250 g ai/ha
Summary of the method: as §2

[11] = test system: redroot pigweed (Amaranthus retroflexus); test: Test G Post-Emergence Protocol; conditions: Amaranthus retroflexus, post-emergence, 312 h, read-out: Pigweed, Redroot damage rating; for pest or weed control at 15.625 g/ha: 15.625 g ai/ha, evaluated after 13 days (100=total damage to plant; 0=no damage to plant); for pest or weed control at 62.5 g/ha: 62.5 g ai/ha; for pest or weed control at 62.5 g/ha / pest or weed control at 250 g/ha: evaluated after 13 days, 100=total damage to plant, 0=no damage to plant; for pest or weed control at 250 g/ha: 250 g ai/ha
Summary of the method: as §2

[12] = test system: velvetleaf (Abutilon theophrasti); test: Test G Post-Emergence Protocol; conditions: for pest or weed control at 15.625 g/ha: 15.625 g ai/ha, evaluated after 13 days (100=total damage to plant; 0=no damage to plant); for pest or weed control at 250 g/ha: 250 g ai/ha
Summary of the method: as §2

[13] = Zea mays, pre-emergence, 312 h, read-out: Corn damage rating (100=total damage to plant; 0=no damage to plant)
[14] = Amaranthus retroflexus, pre-emergence, 312 h, read-out: Pigweed, Redroot damage rating (100=total damage to plant; 0=no damage to plant)
[15] = Amaranthus retroflexus, pre-emergence, 312 h
[16] = Abutilon theophrasti, pre-emergence, 312 h
[17] = Abutilon theophrasti, pre-emergence, 312 h, read-out: Velvetleaf damage rating (100=total damage to plant; 0=no damage to plant)
[18] = Ipomoea, post-emergence, 312 h, read-out: Morningglory, Ivy-leaved damage rating
[19] = Abutilon theophrasti, post-emergence, 312 h, read-out: Velvetleaf damage rating
[20] = Abutilon theophrasti, post-emergence, 312 h, evaluated after 13 days, 100=total damage to plant, 0=no damage to plant, read-out: Velvetleaf damage rating

Row | Structure (SMILES) | pest or weed control at 15.625 g/ha [1] [%] | pest or weed control at 62.5 g/ha [1] [%] | pest or weed control at 250 g/ha [1] [%] | plant injury at 62.5 g/ha (corn (Zea mays) [2]; Zea mays, pre-emergence, 312 h) [%] | plant injury at 250 g/ha (corn (Zea mays) [2]; [13]) [%] | pest or weed control at 15.625 g/ha [3] [%] | pest or weed control at 62.5 g/ha [3] [%] | pest or weed control at 250 g/ha [3] [%] | pest or weed control at 15.625 g/ha ([4]; Ipomoea, pre-emergence, 312 h) [%] | pest or weed control at 250 g/ha ([4]; Ipomoea, pre-emergence, 312 h) [%] | pest or weed control at 15.625 g/ha [5, 14] [%] | pest or weed control at 62.5 g/ha [5, 15] [%] | pest or weed control at 62.5 g/ha [6, 16] [%] | pest or weed control at 250 g/ha [6, 17] [%] | pest or weed control at 15.625 g/ha [7] [%] | pest or weed control at 62.5 g/ha [7] [%] | pest or weed control at 250 g/ha [7] [%] | plant injury at 15.625 g/ha (corn (Zea mays) [8]) [%] | plant injury at 62.5 g/ha (corn (Zea mays) [8]) [%] | plant injury at 250 g/ha (corn (Zea mays) [8]) [%] | also measured
1 | CN1C[C@H](c2cccc(C(F)(F)F)c2)[C@@H](C(=O)Nc2cccc(F)n2)C1=O (racemic) [Compound 1671] | 70 | 90 | 90 | 80 | 80 | 80 | 90 | 90 | 10 | 70 | 0 | 30 | 30 | 60 | 70 | 70 | 80 | 60 | 70 | 80 | Corn damage rating (100=total damage to plant; 0=no damage to plant) (corn (Zea mays) [2]; 15.625 g ai/ha): 30; Morningglory, Ivy-leaved damage rating ([4]; 62.5 g ai/ha, 100=total damage to plant, 0=no damage to plant): 20; Pigweed, Redroot damage rating (100=total damage to plant; 0=no damage to plant) ([5]; 250 g ai/ha): 50; Velvetleaf damage rating (100=total damage to plant; 0=no damage to plant) ([6]; 15.625 g ai/ha): 20; pest or weed control at 15.625 g/ha [9]: 70%; pest or weed control at 62.5 g/ha [9]: 80%; pest or weed control at 250 g/ha [9]: 80%; Morningglory, Ivy-leaved damage rating ([10]; 15.625 g ai/ha, evaluated after 13 days (100=total damage to plant; 0=no damage to plant)): 0; pest or weed control at 62.5 g/ha [10, 18]: 70%; pest or weed control at 250 g/ha [10, 18]: 50%; pest or weed control at 15.625 g/ha [11]: 10%; pest or weed control at 62.5 g/ha [11]: 30%; pest or weed control at 250 g/ha [11]: 50%; Velvetleaf damage rating ([12]; 62.5 g ai/ha, evaluated after 13 days, 100=total damage to plant, 0=no damage to plant): 10; pest or weed control at 15.625 g/ha [12, 19]: 0%; pest or weed control at 250 g/ha [12, 20]: 40%
2 | Cc1ccc([C@H]2CN(C)C(=O)[C@@H]2C(=O)Nc2ccc3cccnc3n2)cc1 (racemic) [Compound 1675] | 0 | 0 | 0 | 0 | 0 | 0 | 0 | 10 | 0 | 0 | 0 | 0 | 0 | 0 | 0 | 0 | 0 | 0 | 0 | 0 | plant injury at 15.625 g/ha (corn (Zea mays) [2]; Zea mays, pre-emergence, 312 h, 15.625 g ai/ha, read-out: Corn damage rating (100=total damage to plant; 0=no damage to plant)): 0%; pest or weed control at 62.5 g/ha ([4]; Ipomoea, pre-emergence, 312 h, 62.5 g ai/ha, 100=total damage to plant, 0=no damage to plant, read-out: Morningglory, Ivy-leaved damage rating): 0%; pest or weed control at 250 g/ha ([5]; Amaranthus retroflexus, pre-emergence, 312 h, 250 g ai/ha, read-out: Pigweed, Redroot damage rating (100=total damage to plant; 0=no damage to plant)): 0%; pest or weed control at 15.625 g/ha ([6]; Abutilon theophrasti, pre-emergence, 312 h, 15.625 g ai/ha, read-out: Velvetleaf damage rating (100=total damage to plant; 0=no damage to plant)): 0%; pest or weed control at 15.625 g/ha [9]: 0%; pest or weed control at 62.5 g/ha [9]: 0%; pest or weed control at 250 g/ha [9]: 20%; pest or weed control at 15.625 g/ha ([10]; Ipomoea, post-emergence, 312 h, 15.625 g ai/ha, evaluated after 13 days (100=total damage to plant; 0=no damage to plant), read-out: Morningglory, Ivy-leaved damage rating): 0%; pest or weed control at 62.5 g/ha [10, 18]: 0%; pest or weed control at 250 g/ha [10, 18]: 0%; pest or weed control at 15.625 g/ha [11]: 0%; pest or weed control at 62.5 g/ha [11]: 0%; pest or weed control at 250 g/ha [11]: 0%; pest or weed control at 15.625 g/ha [12, 19]: 0%; pest or weed control at 62.5 g/ha ([12]; Abutilon theophrasti, post-emergence, 312 h, 62.5 g ai/ha, evaluated after 13 days, 100=total damage to plant, 0=no damage to plant, read-out: Velvetleaf damage rating): 0%; pest or weed control at 250 g/ha [12, 20]: 10%
